Source: US20040235080A1, “Methods and reagents for detecting endotoxin” (priority 2001, published 2004)

What was measured:
[1] = molecular target: T1, recombinant Carcinoscorpius rotundicauda Factor C (Carcinoscorpius rotundicauda, UniProt Q26422); assay: endotoxin assay of Examples 1 and 13 (two-step and one-step); type: biochemical; settings: assay exemplified in Examples 1 and 13
T1 construct: made in house; host or cells: Sf9 insect cells, baculovirus (pFASTBAC1 / bacmid); the secreted protein is used as culture supernatant
T1 sequence (Q26422 26-1019): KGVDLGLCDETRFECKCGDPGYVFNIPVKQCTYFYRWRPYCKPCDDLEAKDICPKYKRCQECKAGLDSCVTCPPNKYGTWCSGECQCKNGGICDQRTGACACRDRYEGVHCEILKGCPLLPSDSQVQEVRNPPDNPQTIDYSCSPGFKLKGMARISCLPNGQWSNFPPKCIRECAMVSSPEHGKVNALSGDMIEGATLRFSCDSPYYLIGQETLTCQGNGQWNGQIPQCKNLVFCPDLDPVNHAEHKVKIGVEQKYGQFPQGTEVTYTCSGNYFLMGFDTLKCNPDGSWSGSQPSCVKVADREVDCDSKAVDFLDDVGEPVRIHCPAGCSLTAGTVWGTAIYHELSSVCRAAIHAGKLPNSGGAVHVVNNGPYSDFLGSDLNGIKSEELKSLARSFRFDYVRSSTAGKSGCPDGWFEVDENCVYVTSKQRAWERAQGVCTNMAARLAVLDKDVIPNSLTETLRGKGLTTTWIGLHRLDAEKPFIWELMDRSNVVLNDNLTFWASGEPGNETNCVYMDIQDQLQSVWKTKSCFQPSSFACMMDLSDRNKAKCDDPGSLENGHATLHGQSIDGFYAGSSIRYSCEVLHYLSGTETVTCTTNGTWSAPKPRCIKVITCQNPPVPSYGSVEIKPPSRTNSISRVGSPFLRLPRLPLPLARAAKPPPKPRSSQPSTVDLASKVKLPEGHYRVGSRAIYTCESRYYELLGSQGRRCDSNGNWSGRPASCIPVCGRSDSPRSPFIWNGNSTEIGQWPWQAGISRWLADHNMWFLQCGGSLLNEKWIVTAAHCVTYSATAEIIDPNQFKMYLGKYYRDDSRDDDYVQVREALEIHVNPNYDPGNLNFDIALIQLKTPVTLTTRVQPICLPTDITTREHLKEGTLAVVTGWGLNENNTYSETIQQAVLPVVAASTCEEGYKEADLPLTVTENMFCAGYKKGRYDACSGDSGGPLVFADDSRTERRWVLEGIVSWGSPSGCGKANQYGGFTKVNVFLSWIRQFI
Procedure: Endotoxin was pre-incubated with culture medium containing recombinant Carcinoscorpius rotundicauda Factor C obtained from recombinant Factor C-producing Sf9 cells for 1 hour in assay buffer (30 mM Tris, pH 8.0, 30 mM NaCl, 0.3% lactose, and 0.0025% Zwittergent 3-14). The substrate N-t-Boc-Asp(Obzl)-Pro-Arg-7-Amido-4-methyl coumarin (DPR-coumarin) was added to the mixture to a final concentration of […]. The fluorescence generated from the cleavage of the substrate by activated Factor C was measured after 15-20 minutes. Results of a similar assay carried out using the substrate N-t-Boc-Val-Pro-Arg-7-Amido-4-methyl coumarin at a final concentration of 100 mM are shown in FIG. 5.
A one-step endotoxin assay can be carried out in a 96-well plate, using 100 μl each of blank and endotoxin standards. […] The plate is incubated at 37° C. for 1 hour. Excitation and emission are read at 390 and 440 nm, respectively, in a fluorescence microplate reader.

[2] = molecular target: T2, recombinant Factor C (rFC) (Carcinoscorpius rotundicauda, UniProt Q26422); assay: recombinant Factor C (rFC) assay with different detergents and detergent concentrations; type: biochemical; settings: for Detergent concentration range for rFC inhibition / Detergent concentration range for rFC enhancing: 1 EU/ml EC-6 endotoxin, DPR-coumarin substrate, data after 30 minutes
T2 construct: made in house; host or cells: Culture supernatant, lot 031901I
T2 sequence (Q26422 26-1019): T1 sequence (Q26422 26-1019)
Procedure: The recombinant Factor C (rFC) assay was carried out using 20 μl of each detergent (˜10× of final concentration), 150 μl of 1 EU/ml EC-6, 10 μl of rFC supernatant 031901I, 20 μl of 300 mM Tris, pH 8.0, and 20 μl of 0.55 mM DPR-coumarin substrate. The results of the assay were read at 38° C. using a Cytofluor reader set at 390/440 nm, 5 minutes per cycle, for 1 hour. The data were graphed after 30 minutes.

## CCCCCCCCCCCCCC[N+](C)(C)CCCS(=O)(=O)[O-] [Zwittergent 3-14, N-tetradecyl-N,N-dimethyl-3-ammonio-1-propanesulfonate]
[1]
  optimal concentration of the surfactant: 0.0025%
[2]
  width of the enhancing concentration range: narrow
  Detergent concentration range for rFC inhibition: >=0.004%

## Triton X-100
[2]
  width of the enhancing concentration range: narrow
  Detergent concentration range for rFC inhibition: >=0.008%

## CCCCCCCC/C=C\CCCCCCCC(=O)OCCOCC(OCCO)C1OCC(OCCO)C1OCCO (centres unmarked) [Tween 80, polyoxyethylene (20) sorbitan monooleate]
[2]
  width of the enhancing concentration range: wide
  Detergent concentration range for rFC enhancing: 0.001-0.25%
  Detergent concentration range for rFC inhibition: >0.25%

## CCCCCCCCCCCC(=O)OCCOCCOCCOCCOCCOCCOCCOCCOCCOCCOCCOCCOCCOCCOCCOCCOCCOCCOCCOCCOCC(OCCOCCOCCOCCOCCOCCOCCOCCOCCOCCOCCOCCOCCOCCOCCOCCOCCOCCOCCOCCO)C1OCC(OCCOCCOCCOCCOCCOCCOCCOCCOCCOCCOCCOCCOCCOCCOCCOCCOCCOCCOCCOCCO)C1OCCOCCOCCOCCOCCOCCOCCOCCOCCOCCOCCOCCOCCOCCOCCOCCOCCOCCOCCOCCO (centres unmarked) [Tween 20, polyoxyethylene (20) sorbitan monolaurate]
[2]
  width of the enhancing concentration range: wide
  Detergent concentration range for rFC enhancing: 0.001-0.5%
  Detergent concentration range for rFC inhibition: >0.5%

## CCCCCCCCS[C@@H]1O[C@H](CO)[C@@H](O)[C@H](O)[C@H]1O [OTG, n-Octyl-beta-D-thioglycopyranoside]
[2]
  width of the enhancing concentration range: narrow
  Detergent concentration range for rFC inhibition: >=0.5%

## CCCCCCCCCCCCOS(=O)(=O)[O-].[Na+] [SDS, sodium dodecyl sulfate]
[2]
  Detergent concentration range for rFC inhibition: >=0.0004%
